From patent US11572590B2, “Methods for evaluating tumor cell spheroids using 3D microfluidic cell culture device” (Dana-Farber Cancer Institute, Inc., priority 2017, dated 2023)
Read-outs that look alike come from different tables or passages of the source.

How the values were obtained:
Test in all cases: SelectScreen Kinase Profiling, single point inhibition and IC50 for off-target kinases
Format in all cases: biochemical
off-target kinases [1] = biological target: off-target kinases (Homo sapiens, UniProt O95819); conditions: MAP4K4 (HGK), ATP Km app, ZLYTE
Chain of off-target kinases (Homo sapiens, UniProt O95819) (O95819 whole entry): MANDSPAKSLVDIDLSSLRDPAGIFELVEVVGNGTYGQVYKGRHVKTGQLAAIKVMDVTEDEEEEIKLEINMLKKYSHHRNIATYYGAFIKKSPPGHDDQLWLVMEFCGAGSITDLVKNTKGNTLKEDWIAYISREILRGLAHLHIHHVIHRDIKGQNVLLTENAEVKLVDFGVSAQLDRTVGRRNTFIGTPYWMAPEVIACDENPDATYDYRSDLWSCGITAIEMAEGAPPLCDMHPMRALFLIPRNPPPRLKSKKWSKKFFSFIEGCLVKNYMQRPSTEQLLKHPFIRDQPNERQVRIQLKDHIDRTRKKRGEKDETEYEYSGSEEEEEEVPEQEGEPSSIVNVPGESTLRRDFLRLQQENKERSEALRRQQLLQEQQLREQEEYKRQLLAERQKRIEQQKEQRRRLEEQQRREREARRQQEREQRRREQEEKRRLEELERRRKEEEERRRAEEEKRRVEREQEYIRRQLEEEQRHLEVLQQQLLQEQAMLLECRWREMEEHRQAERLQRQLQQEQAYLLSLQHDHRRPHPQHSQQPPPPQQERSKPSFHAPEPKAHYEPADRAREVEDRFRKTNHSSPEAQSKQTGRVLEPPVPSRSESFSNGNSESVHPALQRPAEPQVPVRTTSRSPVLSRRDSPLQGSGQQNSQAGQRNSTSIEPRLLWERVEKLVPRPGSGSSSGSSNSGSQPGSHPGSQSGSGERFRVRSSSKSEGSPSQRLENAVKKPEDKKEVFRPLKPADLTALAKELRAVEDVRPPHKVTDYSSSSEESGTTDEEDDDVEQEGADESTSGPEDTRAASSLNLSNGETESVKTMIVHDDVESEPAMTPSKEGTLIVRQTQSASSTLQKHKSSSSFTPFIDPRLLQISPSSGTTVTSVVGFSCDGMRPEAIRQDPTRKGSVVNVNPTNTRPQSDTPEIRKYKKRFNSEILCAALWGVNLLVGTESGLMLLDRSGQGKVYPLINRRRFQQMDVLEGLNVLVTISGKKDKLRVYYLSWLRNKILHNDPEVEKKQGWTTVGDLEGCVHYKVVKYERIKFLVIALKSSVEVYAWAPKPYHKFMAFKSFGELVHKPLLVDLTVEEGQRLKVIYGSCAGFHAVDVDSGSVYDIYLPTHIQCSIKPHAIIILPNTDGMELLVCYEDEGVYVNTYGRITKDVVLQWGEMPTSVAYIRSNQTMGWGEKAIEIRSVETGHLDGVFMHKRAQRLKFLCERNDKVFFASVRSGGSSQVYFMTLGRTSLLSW

off-target kinases [2] = biological target: off-target kinases (Homo sapiens, UniProt P49137); conditions: MAPKAPK2, ZLYTE, ATP Km app
Chain of off-target kinases (Homo sapiens, UniProt P49137) (P49137 whole entry): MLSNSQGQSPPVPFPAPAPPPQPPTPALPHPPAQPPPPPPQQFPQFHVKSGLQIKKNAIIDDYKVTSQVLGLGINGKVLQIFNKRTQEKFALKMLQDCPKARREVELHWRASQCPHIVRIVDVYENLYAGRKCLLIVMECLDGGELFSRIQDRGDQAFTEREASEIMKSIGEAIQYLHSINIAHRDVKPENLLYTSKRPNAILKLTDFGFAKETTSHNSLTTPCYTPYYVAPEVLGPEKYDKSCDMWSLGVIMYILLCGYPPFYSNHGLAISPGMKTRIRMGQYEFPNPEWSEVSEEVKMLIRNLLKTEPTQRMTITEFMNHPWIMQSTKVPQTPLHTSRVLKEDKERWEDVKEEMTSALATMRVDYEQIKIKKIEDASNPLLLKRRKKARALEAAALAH

off-target kinases [3] = biological target: off-target kinases (Homo sapiens, UniProt O96013); conditions: PAK4, ATP Km app, ZLYTE
Chain of off-target kinases (Homo sapiens, UniProt O96013) (O96013 whole entry): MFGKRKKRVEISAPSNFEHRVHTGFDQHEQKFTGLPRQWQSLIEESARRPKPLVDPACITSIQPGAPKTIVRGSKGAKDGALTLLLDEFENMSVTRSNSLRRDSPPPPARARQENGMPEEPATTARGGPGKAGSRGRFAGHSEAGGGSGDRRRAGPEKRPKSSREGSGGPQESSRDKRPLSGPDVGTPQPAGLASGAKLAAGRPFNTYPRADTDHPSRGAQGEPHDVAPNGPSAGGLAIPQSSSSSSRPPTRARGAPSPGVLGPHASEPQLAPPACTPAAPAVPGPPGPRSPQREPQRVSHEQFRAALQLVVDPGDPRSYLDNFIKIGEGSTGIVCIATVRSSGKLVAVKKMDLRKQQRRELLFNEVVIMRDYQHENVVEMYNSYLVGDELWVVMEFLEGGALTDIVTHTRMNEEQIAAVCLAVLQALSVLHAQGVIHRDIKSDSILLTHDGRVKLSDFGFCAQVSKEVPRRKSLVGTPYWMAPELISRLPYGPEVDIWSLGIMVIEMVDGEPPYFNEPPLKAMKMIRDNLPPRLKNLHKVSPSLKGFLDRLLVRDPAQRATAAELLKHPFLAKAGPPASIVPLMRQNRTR

off-target kinases [4] = biological target: off-target kinases (Homo sapiens, UniProt P50750)
Chain of off-target kinases (Homo sapiens, UniProt P50750) (P50750 whole entry): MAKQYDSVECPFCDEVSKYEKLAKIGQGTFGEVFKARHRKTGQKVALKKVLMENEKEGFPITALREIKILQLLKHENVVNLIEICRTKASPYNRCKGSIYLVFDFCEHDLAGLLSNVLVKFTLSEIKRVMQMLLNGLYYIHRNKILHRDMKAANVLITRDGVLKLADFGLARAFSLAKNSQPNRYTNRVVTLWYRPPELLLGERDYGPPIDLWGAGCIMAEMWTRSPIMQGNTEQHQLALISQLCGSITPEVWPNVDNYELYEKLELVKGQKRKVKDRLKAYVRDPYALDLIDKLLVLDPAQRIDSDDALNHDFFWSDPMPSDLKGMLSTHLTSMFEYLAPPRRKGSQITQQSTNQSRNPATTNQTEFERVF

off-target kinases [5] = biological target: T1, off-target kinases (Homo sapiens, UniProt P53778); conditions: MAPK12 (p38 gamma), ZLYTE, ATP Km app
T1 sequence (P53778 1-367): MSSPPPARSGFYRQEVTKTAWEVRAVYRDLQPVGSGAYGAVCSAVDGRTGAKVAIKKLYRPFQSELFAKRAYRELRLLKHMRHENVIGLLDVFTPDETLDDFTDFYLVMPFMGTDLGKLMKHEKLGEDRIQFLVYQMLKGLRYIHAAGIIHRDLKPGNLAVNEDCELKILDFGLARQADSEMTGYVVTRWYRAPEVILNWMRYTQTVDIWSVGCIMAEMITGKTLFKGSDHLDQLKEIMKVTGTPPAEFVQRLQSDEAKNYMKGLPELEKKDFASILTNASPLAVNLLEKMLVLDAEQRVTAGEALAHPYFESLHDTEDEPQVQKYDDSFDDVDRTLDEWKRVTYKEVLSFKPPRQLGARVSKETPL

off-target kinases [6] = biological target: off-target kinases (Homo sapiens, UniProt Q14012); conditions: CAMK1 (CaMK1), Adapta, ATP 10
Chain of off-target kinases (Homo sapiens, UniProt Q14012) (Q14012 whole entry): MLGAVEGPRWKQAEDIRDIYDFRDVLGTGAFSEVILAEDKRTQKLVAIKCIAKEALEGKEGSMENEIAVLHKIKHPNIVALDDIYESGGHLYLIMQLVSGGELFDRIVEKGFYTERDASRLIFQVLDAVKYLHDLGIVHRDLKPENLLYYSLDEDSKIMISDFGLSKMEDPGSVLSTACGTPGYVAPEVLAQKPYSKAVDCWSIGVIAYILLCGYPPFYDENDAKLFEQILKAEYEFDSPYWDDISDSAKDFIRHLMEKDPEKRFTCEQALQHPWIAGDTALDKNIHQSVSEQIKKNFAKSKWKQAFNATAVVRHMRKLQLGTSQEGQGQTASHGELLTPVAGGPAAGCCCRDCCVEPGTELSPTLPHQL

N#Cc1cc(-c2ncnc(Nc3ccc(N4CCN(C5COC5)CC4)cc3)n2)ccc1OC1CCOCC1 [Compound 1, 5-(4-((4-(4-(oxetan-3-yl)piperazin-1-yl)phenyl)amino)-1,3,5-triazin-2-yl)-2-((tetrahydro-2H-pyran-4-yl)oxy)benzonitrile]
inhibition (off-target kinases [1]; read-out: % Inhibition 1): 86% | inhibition (off-target kinases [1]; read-out: % Inhibition 2): 86% | inhibition (off-target kinases [1]; read-out: % Inhibition Avg): 86% | inhibition (off-target kinases [2]; read-out: % Inhibition 1): 0% | inhibition (off-target kinases [2]; read-out: % Inhibition 2): -1% | inhibition (off-target kinases [2]; read-out: % Inhibition Avg): 0% | inhibition (off-target kinases [3]; read-out: % Inhibition 1): 91% | inhibition (off-target kinases [3]; read-out: % Inhibition 2): 90% | inhibition (off-target kinases [3]; read-out: % Inhibition Avg): 90% | inhibition (off-target kinases [4]; CDK9 (Inactive), LanthaScreen Binding, read-out: % Inhibition 1): 8% | inhibition (off-target kinases [4]; CDK9 (Inactive), LanthaScreen Binding, read-out: % Inhibition 2): 13% | inhibition (off-target kinases [4]; CDK9 (Inactive), LanthaScreen Binding, read-out: % Inhibition Avg): 10% | inhibition (off-target kinases [4]; CDK9/cyclin K, LanthaScreen Binding, read-out: % Inhibition 1): 11% | inhibition (off-target kinases [4]; CDK9/cyclin K, LanthaScreen Binding, read-out: % Inhibition 2): 9% | inhibition (off-target kinases [4]; CDK9/cyclin K, LanthaScreen Binding, read-out: % Inhibition Avg): 10% | inhibition (off-target kinases [4]; CDK9/cyclin T1, Adapta, ATP Km app, read-out: % Inhibition 1): 18% | inhibition (off-target kinases [4]; CDK9/cyclin T1, Adapta, ATP Km app, read-out: % Inhibition 2): 22% | inhibition (off-target kinases [4]; CDK9/cyclin T1, Adapta, ATP Km app, read-out: % Inhibition Avg): 20% | inhibition (off-target kinases [5]; read-out: % Inhibition 1): 4% | inhibition (off-target kinases [5]; read-out: % Inhibition 2): 3% | inhibition (off-target kinases [5]; read-out: % Inhibition Avg): 3% | inhibition (off-target kinases [6]; read-out: % Inhibition 1): 7% | inhibition (off-target kinases [6]; read-out: % Inhibition 2): 8% | inhibition (off-target kinases [6]; read-out: % Inhibition Avg): 7%
